The values that follow come from PubChem BioAssay (NCI).

Several values for one entry are separate records, joined by “and”; a condition that tells them apart may be missing. Identical values can stand only once.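 Interpolation was linear, between the two tested concentrations surrounding the appropriate level; five concentrations were tested over 48 hours in 96-well plates. GI50 = concentration required for 50% inhibition of growth. The concentration for full growth arrest is given as TGI.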 A value given as a limit tells only on which side of the number the result lay.

Holding throughout (experiment): NCI tumour cell line growth inhibition, 48 h
Assay [1] concerns CCRF-CEM leukemia.
Assay [2] concerns HL-60(TB) leukemia.
Assay [3] deals with SK-OV-3 ovarian.
The test system of assay [4] is SW-620 colon.
Assay [5] concerns 786-0 renal.
In assay [6] the test system is SNB-19 CNS.
Assay [7] concerns K-562 leukemia.
For assay [8], the system named is UACC-257 melanoma.
For assay [9], the system named is SR leukemia.
The subject of assay [10] is RXF 393 renal.
For assay [11], the system named is HCT-116 colon.
Assay [12] has as its system MDA-MB-435.
Assay [13] relates to MCF7 breast.

For the compound `CCOc1ccc(N=NS(=O)(=O)O)cc1`, the TGI in [1], in [2], in assay [3], in assay [4], in assay [5] and in [6] was more than 100 µM each time. For the same compound, the TGI in [7], in [8], in assay [9], in assay [10], in assay [11] and in assay [12] was more than 100 µM throughout. The TGI in [13] is more than 100 µM.
With `O=C(CN1CCOCC1)c1ccc2c(c1)oc(=O)n2CCN1CCCC1`, the TGI in assay [1], in assay [2], in [3], in assay [4], in assay [5] and in [6] was more than 100 µM throughout. Also, the TGI in [7], in assay [8], in assay [9], in assay [10], in assay [11] and in assay [12] was more than 100 µM each time. Also, the TGI in [13] is more than 100 µM.
As to `COc1ccc(/C=C2\Sc3nnc(CNc4ccc(Cl)cc4)n3N=C2c2cc(F)c(Cl)cc2Cl)cc1OC`, the TGI is more than 100 µM in assay [1]; more than 100 µM in assay [2]; more than 100 µM in [3]; 36.9 µM in assay [4]; more than 100 µM in [5]; more than 100 µM in assay [7]. The TGI in assay [8] is more than 100 µM; in [9] it was more than 100 µM; in assay [10], 74.2 µM; in assay [11], more than 100 µM; in [12], more than 100 µM; in assay [13], more than 100 µM.
For `O=c1c2cc(I)ccc2nc(SCc2n[nH]c(=S)o2)n1Cc1ccccc1`, the TGI was determined as 43.8 µM in assay [1]; 16.5 µM in [2]; 62.3 µM in [3]; 39.6 µM in [4]; 30.3 µM in assay [5]; 55.5 µM in assay [6]. The TGI in [7] is 70.8 µM; in assay [8], 38.1 µM; in assay [9], more than 100 µM; in assay [10], 10.9 µM; in [11], 29.4 µM; in assay [12], 44.4 µM. Also, the TGI in assay [13] was 31.7 µM.
`O=c1oc2ccc(Cl)cc2cc1-c1cn2ccccc2n1`: the TGI in assay [1] was more than 100 µM; in [2], more than 100 µM; in [3] it was 6.52 µM; in [4], more than 100 µM; in [5], 18 µM; in assay [6] it was more than 21 µM. Further, the TGI in assay [7] was more than 100 µM; in assay [8], more than 100 µM; in assay [9] it was more than 100 µM; in [10], more than 44.7 µM; in assay [11], 45.2 µM; in assay [12] it was more than 100 µM. This compound also returned a TGI in assay [13] of 99.2 µM.
Turning to `Cc1nc2ccc(NC3OC(CO)C(O)C(O)C3O)cc2c(=O)n1-c1ccccc1` (stereo unspecified), the TGI in [2], in assay [4], in [5], in assay [6], in assay [7] and in assay [8] was more than 100 µM throughout. Moreover, the TGI in [9], in [10], in assay [11], in [12] and in assay [13] was more than 100 µM in each case. Further, the GI50 in assay [9] was 11.1 µM and > 100 µM.
Regarding `CC1=CC(C)C(C)N(CCNS(=O)(=O)c2ccc(C)cc2)c2ccccc21` (stereo unspecified), the TGI was 25.6 µM in assay [1]; 22.8 µM in assay [2]; more than 100 µM in assay [3]; 20.8 µM in [5]; more than 31.6 µM in assay [6]; 27.5 µM in [7]. The TGI is 34.2 µM in [8]; more than 31.6 µM in assay [9]; 17.7 µM in assay [10]; 17.7 µM in assay [11]; 18.9 µM in [12]; 19.8 µM in assay [13].
In the case of `Cc1ccc(N=NN(C)C(=O)C(C)N)cc1` (stereo unspecified), the TGI in [1], in [2], in assay [4], in [5], in [6] and in [7] was more than 100 µM each time. In addition, the TGI in assay [8], in assay [9], in assay [10], in [11], in assay [12] and in assay [13] was more than 100 µM throughout.
With `O/N=C(\CC(O)(C(F)(F)F)C(F)(F)F)c1cccc(Cl)c1`, the TGI was 47.4 µM in assay [1]; 82.2 µM in [2]; 58.5 µM in [3]; more than 100 µM in assay [4]; more than 100 µM in [5]; more than 100 µM in assay [7]. Besides, the TGI in [8] was more than 100 µM; in [9] it was more than 100 µM; in [10], 46.5 µM; in assay [11] it was more than 100 µM; in assay [12] it was 85.9 µM; in assay [13], more than 100 µM.
For `CN(C)C=NCCN1CCOCC1`, the TGI in assay [1], in assay [2], in [3], in [5], in [6] and in assay [7] was more than 100 µM throughout. Moreover, the TGI in assay [8], in assay [9], in [10], in assay [11], in [12] and in assay [13] was more than 100 µM in each case.
For the compound `Clc1ccc(-c2ccc(-c3nnc(COc4ccc(OCc5nnc(-c6ccc(-c7ccc(Cl)cc7Cl)o6)o5)c(Cl)c4)o3)o2)c(Cl)c1`, the TGI in assay [1] was 67.1 µM; in assay [2] it was more than 100 µM; in assay [4], more than 100 µM; in [5], more than 100 µM; in assay [6] it was more than 100 µM; in [7], more than 100 µM. The TGI in [8] is more than 100 µM; in assay [9] it was 74.8 µM; in assay [10], 73.2 µM; in assay [11], more than 100 µM; in assay [12], more than 100 µM; in assay [13] it was more than 100 µM.
